Experimental data taken from the NIST ThermoML archive (doi:10.1016/j.jct.2016.07.035).
Numbers after ± are expanded uncertainties.

Settings: Crystal; visual observation

Normal melting temperature: 173.50 ± 2.1 °C
Structure (SMILES): COC(=O)C1=C(C)NC(C)=C(C(=O)OC)C1c1ccccc1[N+](=O)[O-]
